Common to all, as to assay: Eurofins kinase panel
Common to all, as to format: biochemical
Conditions in all cases: read-out: Inhibition rate (%)

One test has as its target T1, Aurora-C(h) (Homo sapiens, UniProt Q9UQB9).
T1 construct: purchased Eurofins (KinaseProfiler)
T1 sequence (Q9UQB9 1-309): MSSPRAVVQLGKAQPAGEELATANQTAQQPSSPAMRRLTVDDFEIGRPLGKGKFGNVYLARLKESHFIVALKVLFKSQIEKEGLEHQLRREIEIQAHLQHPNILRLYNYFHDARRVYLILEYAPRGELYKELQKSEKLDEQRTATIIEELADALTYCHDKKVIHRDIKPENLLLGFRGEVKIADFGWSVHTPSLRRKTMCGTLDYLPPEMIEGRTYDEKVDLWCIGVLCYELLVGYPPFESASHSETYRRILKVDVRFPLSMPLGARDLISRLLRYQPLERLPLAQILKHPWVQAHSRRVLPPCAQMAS

A further test addresses T2, BTK(R28H)(h) (Homo sapiens, UniProt Q06187, R28H).
T2 construct: purchased Eurofins (KinaseProfiler)

A further test concerns the target T3, ChaK1(h) (Homo sapiens, UniProt Q96QT4).
T3 construct: purchased Eurofins (KinaseProfiler)

The target of a further test is T4, JNK1α1(h) (Homo sapiens, UniProt P45983).
T4 construct: purchased Eurofins (KinaseProfiler)

For another test, the target named is T5, JNK3(h) (Homo sapiens, UniProt P53779).
T5 construct: purchased Eurofins (KinaseProfiler)

The next test deals with T6, Mer(h) (Homo sapiens, UniProt Q12866).
T6 construct: purchased Eurofins (KinaseProfiler)
T6 sequence (Q12866 21-999): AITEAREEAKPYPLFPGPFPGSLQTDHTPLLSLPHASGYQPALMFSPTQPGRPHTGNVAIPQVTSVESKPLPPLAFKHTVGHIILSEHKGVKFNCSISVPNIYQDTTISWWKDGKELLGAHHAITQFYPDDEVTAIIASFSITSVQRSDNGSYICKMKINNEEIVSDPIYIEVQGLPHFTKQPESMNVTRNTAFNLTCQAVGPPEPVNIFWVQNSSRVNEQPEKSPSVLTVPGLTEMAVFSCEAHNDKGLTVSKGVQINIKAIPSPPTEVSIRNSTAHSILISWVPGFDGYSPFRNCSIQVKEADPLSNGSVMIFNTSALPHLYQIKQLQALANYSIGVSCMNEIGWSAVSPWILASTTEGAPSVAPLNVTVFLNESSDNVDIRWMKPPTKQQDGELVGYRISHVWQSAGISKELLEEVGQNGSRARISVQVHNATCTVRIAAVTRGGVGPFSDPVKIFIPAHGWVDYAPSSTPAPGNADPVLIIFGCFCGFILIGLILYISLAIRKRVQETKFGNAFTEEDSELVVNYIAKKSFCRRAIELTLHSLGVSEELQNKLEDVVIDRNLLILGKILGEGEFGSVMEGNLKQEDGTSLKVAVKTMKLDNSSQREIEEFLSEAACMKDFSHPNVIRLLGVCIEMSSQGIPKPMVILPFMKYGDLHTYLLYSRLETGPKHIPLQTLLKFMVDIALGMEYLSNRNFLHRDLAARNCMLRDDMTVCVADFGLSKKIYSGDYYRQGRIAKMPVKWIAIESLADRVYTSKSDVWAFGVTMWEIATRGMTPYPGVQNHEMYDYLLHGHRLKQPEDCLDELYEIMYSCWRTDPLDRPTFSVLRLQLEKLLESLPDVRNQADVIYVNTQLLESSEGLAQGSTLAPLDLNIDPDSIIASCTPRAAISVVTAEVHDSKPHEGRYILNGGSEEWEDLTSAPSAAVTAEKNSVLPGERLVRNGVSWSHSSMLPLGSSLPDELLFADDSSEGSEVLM

The next test concerns the target T7, PKCμ(h) (Homo sapiens, UniProt Q15139).
T7 construct: purchased Eurofins (KinaseProfiler)
T7 sequence (Q15139 1-912): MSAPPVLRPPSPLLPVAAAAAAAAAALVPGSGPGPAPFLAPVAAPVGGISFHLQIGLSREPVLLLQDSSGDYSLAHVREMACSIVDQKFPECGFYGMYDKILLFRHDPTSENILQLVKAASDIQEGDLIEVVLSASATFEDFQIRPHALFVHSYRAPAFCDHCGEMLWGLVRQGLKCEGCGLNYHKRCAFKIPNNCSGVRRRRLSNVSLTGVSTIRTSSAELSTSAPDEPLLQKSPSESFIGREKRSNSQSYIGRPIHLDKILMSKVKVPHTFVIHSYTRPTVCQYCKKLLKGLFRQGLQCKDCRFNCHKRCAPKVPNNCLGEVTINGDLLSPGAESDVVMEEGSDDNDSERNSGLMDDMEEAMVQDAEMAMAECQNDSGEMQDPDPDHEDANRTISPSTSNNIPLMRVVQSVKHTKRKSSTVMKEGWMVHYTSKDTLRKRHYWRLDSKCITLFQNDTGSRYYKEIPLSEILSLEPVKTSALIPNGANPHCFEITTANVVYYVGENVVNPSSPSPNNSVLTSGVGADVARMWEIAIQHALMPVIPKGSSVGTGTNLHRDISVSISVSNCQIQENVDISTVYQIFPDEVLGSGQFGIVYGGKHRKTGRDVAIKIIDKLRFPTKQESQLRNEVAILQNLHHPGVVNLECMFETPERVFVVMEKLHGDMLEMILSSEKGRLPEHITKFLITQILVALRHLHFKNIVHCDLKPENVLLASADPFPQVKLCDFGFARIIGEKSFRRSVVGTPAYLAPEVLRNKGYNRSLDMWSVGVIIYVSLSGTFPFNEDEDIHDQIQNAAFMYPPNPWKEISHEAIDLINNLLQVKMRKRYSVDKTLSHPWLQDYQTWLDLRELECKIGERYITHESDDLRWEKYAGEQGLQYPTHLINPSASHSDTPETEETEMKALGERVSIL

The target in the next test is T8, SAPK2a(T106M)(h) (Homo sapiens, UniProt Q16539, T106M).
T8 construct: purchased Eurofins (KinaseProfiler)

SMILES strings stand for the structures.

T4 sequence (P45983 1-384 isoform P45983-2): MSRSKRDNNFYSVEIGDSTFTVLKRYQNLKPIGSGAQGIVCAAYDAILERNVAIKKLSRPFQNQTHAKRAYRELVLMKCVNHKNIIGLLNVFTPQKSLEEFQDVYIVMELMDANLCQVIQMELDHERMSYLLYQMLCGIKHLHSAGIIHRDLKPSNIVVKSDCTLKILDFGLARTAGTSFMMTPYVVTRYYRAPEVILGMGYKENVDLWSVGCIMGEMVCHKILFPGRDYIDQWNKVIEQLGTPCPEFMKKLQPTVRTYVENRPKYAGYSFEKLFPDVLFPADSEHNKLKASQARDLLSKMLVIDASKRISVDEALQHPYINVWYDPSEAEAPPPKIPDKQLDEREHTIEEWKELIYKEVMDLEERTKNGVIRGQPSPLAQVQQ
T8 sequence (Q16539 whole entry T106M): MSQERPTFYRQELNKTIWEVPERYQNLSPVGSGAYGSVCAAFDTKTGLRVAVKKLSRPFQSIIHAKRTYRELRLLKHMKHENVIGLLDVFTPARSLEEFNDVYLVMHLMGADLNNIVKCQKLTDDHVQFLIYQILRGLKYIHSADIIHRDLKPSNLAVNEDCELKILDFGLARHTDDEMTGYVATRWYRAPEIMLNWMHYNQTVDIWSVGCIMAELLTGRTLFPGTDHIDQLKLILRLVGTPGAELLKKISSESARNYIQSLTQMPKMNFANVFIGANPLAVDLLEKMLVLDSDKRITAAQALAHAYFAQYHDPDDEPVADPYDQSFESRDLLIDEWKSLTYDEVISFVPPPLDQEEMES
T2 sequence (Q06187 whole entry R28H): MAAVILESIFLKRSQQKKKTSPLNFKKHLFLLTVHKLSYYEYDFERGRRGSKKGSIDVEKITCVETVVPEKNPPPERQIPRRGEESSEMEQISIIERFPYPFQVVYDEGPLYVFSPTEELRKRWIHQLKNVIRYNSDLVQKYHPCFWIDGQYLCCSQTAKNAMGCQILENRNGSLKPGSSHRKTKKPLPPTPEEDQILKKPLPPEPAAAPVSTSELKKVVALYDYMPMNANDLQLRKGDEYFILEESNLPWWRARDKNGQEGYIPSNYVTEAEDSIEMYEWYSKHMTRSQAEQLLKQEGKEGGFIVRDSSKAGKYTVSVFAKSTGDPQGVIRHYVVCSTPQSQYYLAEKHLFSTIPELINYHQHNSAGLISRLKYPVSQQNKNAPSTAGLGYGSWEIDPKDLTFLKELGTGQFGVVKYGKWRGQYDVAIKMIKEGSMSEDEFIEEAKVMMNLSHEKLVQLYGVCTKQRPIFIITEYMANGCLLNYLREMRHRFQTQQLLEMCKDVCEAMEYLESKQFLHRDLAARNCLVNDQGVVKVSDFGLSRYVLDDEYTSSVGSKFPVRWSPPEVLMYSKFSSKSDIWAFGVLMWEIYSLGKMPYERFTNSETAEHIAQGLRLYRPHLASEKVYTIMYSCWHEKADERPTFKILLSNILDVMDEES
T5 sequence (P53779 whole entry): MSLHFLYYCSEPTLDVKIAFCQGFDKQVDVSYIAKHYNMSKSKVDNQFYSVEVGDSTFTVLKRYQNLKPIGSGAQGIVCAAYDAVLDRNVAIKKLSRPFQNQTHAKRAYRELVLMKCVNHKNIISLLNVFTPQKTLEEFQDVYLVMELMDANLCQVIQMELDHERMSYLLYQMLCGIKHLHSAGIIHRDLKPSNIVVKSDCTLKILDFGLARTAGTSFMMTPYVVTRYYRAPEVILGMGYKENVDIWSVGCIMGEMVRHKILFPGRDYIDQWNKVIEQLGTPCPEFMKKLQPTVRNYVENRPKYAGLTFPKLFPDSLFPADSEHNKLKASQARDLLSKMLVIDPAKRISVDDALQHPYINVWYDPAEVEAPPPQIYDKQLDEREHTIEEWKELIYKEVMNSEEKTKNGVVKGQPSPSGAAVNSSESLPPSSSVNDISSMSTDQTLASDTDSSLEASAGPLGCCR
T3 sequence (Q96QT4 whole entry): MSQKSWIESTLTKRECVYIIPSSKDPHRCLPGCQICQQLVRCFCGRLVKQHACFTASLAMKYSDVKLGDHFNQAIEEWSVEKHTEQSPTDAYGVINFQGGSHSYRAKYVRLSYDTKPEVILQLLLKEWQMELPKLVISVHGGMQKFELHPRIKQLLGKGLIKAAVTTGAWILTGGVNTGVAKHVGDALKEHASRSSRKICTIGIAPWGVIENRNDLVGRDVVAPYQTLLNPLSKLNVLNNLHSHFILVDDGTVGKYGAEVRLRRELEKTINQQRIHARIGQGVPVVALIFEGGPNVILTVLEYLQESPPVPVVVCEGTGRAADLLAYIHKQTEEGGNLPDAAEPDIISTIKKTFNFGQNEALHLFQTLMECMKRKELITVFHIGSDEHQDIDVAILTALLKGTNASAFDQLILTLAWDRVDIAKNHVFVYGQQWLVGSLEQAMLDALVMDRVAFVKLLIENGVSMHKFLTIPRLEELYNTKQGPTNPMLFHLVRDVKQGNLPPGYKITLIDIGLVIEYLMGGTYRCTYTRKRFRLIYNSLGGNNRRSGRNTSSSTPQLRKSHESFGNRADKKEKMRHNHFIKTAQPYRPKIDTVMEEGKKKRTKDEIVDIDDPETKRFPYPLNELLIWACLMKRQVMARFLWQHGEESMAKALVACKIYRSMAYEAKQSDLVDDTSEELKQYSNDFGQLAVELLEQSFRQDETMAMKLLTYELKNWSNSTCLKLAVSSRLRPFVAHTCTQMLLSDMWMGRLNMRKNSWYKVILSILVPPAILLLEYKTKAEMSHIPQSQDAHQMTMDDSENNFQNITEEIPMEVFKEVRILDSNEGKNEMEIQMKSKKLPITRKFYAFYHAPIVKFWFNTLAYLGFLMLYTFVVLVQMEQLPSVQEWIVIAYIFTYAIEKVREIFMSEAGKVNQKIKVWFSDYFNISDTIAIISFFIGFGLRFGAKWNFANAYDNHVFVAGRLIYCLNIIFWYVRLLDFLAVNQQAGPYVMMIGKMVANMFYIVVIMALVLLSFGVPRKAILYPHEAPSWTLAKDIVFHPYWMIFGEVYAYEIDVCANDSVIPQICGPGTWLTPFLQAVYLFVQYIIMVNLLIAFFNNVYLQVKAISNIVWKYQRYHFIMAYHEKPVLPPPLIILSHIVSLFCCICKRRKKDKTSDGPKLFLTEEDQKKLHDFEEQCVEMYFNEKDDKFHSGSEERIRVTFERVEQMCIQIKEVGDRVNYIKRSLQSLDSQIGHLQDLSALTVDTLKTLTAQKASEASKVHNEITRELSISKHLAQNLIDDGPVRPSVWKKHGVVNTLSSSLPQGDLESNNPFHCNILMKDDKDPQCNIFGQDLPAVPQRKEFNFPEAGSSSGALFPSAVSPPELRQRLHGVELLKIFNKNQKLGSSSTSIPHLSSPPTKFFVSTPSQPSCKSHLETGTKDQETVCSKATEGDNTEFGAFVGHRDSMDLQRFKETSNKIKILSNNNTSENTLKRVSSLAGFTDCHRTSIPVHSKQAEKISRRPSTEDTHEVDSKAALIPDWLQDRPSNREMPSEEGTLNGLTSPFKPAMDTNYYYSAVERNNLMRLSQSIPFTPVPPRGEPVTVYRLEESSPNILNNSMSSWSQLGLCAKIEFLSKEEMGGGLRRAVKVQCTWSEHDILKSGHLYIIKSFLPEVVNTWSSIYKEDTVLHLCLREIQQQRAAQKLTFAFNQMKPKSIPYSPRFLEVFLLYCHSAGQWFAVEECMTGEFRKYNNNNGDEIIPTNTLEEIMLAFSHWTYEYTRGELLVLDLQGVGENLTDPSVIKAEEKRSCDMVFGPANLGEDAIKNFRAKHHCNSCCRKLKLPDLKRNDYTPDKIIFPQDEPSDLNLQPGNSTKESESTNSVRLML

`COc1cc(OC)c(Cl)c(-c2ccc3c(NC(=O)c4ccc(N5CCNC(C)(C)C5)cc4)n[nH]c3n2)c1Cl` [3D185]: the inhibition (commonly the relative decrease from the control value, in per cent) at 0.01 µM is -15% at Aurora-C(h) (10 nM); -3% on BTK(R28H)(h) (10 nM); 2% on ChaK1(h) (10 nM); -3% on JNK1α1(h) (10 nM); -17% at JNK3(h) (10 nM); -9% on Mer(h) (10 nM). Further, the inhibition at 0.01 µM at PKCμ(h) (10 nM) is -2%; on SAPK2a(T106M)(h) (10 nM), 0%. In addition, the inhibition at 0.1 µM at Aurora-C(h) (100 nM) is 6%; at BTK(R28H)(h) (100 nM), -2%; at ChaK1(h) (100 nM), -10%; on JNK1α1(h) (100 nM) it was -4%; at JNK3(h) (100 nM), -22%; at Mer(h) (100 nM) it was -7%. Besides, the inhibition at 0.1 µM is 2% on PKCμ(h) (100 nM) and 3% on SAPK2a(T106M)(h) (100 nM). In addition, the inhibition at 1 µM was -2% on Aurora-C(h) (1000 nM); -4% at BTK(R28H)(h) (1000 nM); 8% on ChaK1(h) (1000 nM); 3% on JNK1α1(h) (1000 nM); -36% at JNK3(h) (1000 nM); 32% on Mer(h) (1000 nM). Besides, the inhibition at 1 µM at PKCμ(h) (1000 nM) is 11%; on SAPK2a(T106M)(h) (1000 nM) it was -3%.

The values are drawn from publication PMC6704710, “Preclinical evaluation of 3D185, a novel potent inhibitor of FGFR1/2/3 and CSF-1R, in FGFR-dependent and macrophage-dominant cancer models” (Journal of Experimental & Clinical Cancer Research : CR, 2019).
